The test system of one assay is renal hypertensive rat. The assay can be described thus: Blood pressure lowering effect in renal hypertension (renal hypertensive rats, intravenous or oral). The class given is in vivo, male Sprague-Dawley rats. As to conditions: 3 mg, read-out: Maxium Blood Pressure Lowering Effect(%). The source says: To induce renal hypertension, left renal artery of 4 week-old male Sprague-Dawley rats(from The Korea Research Institute of Chemical Technology) was ligated. The rats were anesthetized with ether and the surgical region on the left abdomen of the rat was shaved, disinfected, and then incised about 1 cm vertically. The renal artery near abdominal aorta was isolated carefully from surrounding tissues and veins, and then ligated completely with a suture(4/0 sterile surgical silk). The muscular strata and skin of the surgical area were sutured with a suture(4/0 sterile surgical silk). The surgical region was disinfected to prevent infection and thereafter, 200 to 250 mg/Kg/day of cephazolin sodium was injected intramuscularly for 2 days. 6 to 8 days after the ligation, rats showing systolic pressure of more than 180 mmHg were selected for renal hypertension test. The blood pressure was determined by a tail-cuff method from the tail under unanesthetized condition(Gerold, M. et al., Arzneimittrel-Forsch, 18, 1285(1968)).
Each of the compounds to be tested was administered intravenously or orally into the renal hypertensive rat. The blood pressure of the rats was determined by direct method(Chiu, A. T. et al., J. Pharmacol. Exp. Ther. 250, 867(1989)) using a catheter. The rats were anesthetized with ketamine hydrochloride(125 mg/kg, i.p.) and a catheter was filled with saline and inserted into a carotid artery and carotid vein. The surgical area was sutured with a metal clip. The rats were relaxed at least 3 hours and the catheter in the carotid artery was adapted to an isotec pressure transducer to determine their blood pressure and heart rate with a physiograph(Linearcorder WR3310). After the blood pressure was stabilized, the test compound was administered intravenously or orally. For intravenous administration, the administered volume and washing volume were 1.0 ml/Kg and 0.2 ml, respectively. The blood pressure and heart rate were measured in regular intervals up to 24 hours after the administration of the test compound and compared with those measured after the administration of the control compound Losartan.
The test compound was dissolved in 0.05N KOH for intravenous administration and suspended in Tween 80 for oral administration.

For another assay, the system named is angiotensin II receptor. The assay can be described thus: Angiotensin II Receptor Binding Assay ([3H] angiotensin II binding inhibition). As to conditions: [3H] angiotensin II ligand; 60 minutes, 25° C.; test concentration not given. The procedure: In accordance with the procedure disclosed in Chiu, A. T. et al., Eur. J. Pharm., 157, 13(1981), a ligand marked with a radioisotope was reacted with an angiotensin II receptor and the reactant was filtered with a glass fiber to remove unreacted ligand. After washing the filter, the amount of the remaining isotope was measured to determine the binding activity of the ligand, as described below in detail.
Sprague-Dawley rats and Wistar rats of 250 to 350 g(from The Korea Research Institute of Chemical Technology) were tested and the test procedures were carried out at 4° C., unless otherwise specified. Adrenal gland was separated from the Sprague-Dawley rats(liver, in the case of Wistar rats) into cortex and medulla. The separated adrenal cortex and medulla were washed with a sucrose buffer solution (0.2M sucrose, 1 mM EDTA, 10 mM Tris, pH 7.2) and homogenized in the same buffer solution by using a Teflon pestle and a Brinkmann homogenizer. The homogenates were centrifuged at 3,000 Xg for 10 minutes to remove precipitates and further centrifuged at 12,000 Xg for 13 minutes. The final supernatants were centrifuged at 102,000 Xg for 1 hour to obtain precipitates, which were washed with a Tris buffer solution(50 mM Tris, 5 mM MgCl2, pH 7.2) and re-centrifuged at 102,000 Xg for 1 hour. The resulting precipitates were immediately processed at the following step or stored at -70° C.
The precipitates were suspended in a Tris buffer solution. The amount of protein was determined by using a Bio-Rad DC protein analyzing kit and the protein concentration was adjusted to the amounts of: 0.2 to 0.3 mg/ml(Sprague-Dawley rat: adrenal cortex), 1.5 to 2.0 mg/ml(Sprague-Dawleyrat: adrenal medulla), and 1.5 to 2.0 mg/ml(Wistar rat: liver). To the suspension, bovine serum albumin(BSA) was added to a concentration of 0.25 wt % and the resultant was immediately processed at the following step or stored at -70° C.
(ii) Measurement of angiotensin II receptor binding capacity 50 μl(based on ligand) of [^3 H] angiotensin II(NEN, NET-446) and 10 μl of each of the test compounds with various concentrations were added to the buffer solution(50 mM Irris(pH 7.2), 5 mM MgCl2, 0.25% BSA) to adjust the final volume to be 0.5 ml. 100 μl of the receptor suspension was added thereto and the resulting solution was reacted for 60 minutes while stirring in a water bath at 25° C. 3 ml of cold buffer solution for analysis was added to cease the reaction. The isotope which was bound to the receptor was isolated from the resultant by using Brandel Cell Harvester System with Whatman glass fiber GF/C. After washing the filter, the radioactivity of the filter was determined by using a liquid scintillation counter. Binding inhibition(%) of the test compound was calculated as follows:
Binding Inhibition(%)=[{(T--B)-(S--B)}/(T--B)]×100
wherein T is cpm of the reaction product untreated with the test compound, S is cpm of the reaction product treated with the test compound, and B is cpm of blank test.

`CCCCc1nc2cc(-c3cccc[n+]3[O-])c(C(OC)OC)nc2n1Cc1ccc(-c2ccccc2-c2nn[nH]n2)cc1` [Example 21, 2-butyl-5-dimethoxymethyl-6-(1-oxy-pyridin-2-yl)-3-[2'-(1H-tetrazol-5-yl)-biphenyl-4-ylmethyl]-3H-imidazo[4,5-b]pyridine]: the change in vivo at 3 mg with renal hypertensive rat is -20%. Besides, the “Binding Inhibition(%)” value in the assay on angiotensin II receptor was determined as 92.2%.
As to `CCCCc1nc2cc(-c3ccc(COCc4ccccc4)cc3)c(C(OC)OC)nc2n1Cc1ccc(-c2ccccc2-c2nn[nH]n2)cc1` [Example 17, 2-butyl-5-dimethoxymethyl-6-[4-(benzyloxymethyl)-phenyl-1-yl]-3-[2'-(1H-tetrazol-5-yl)-biphenyl-4-ylmethyl]-3H-imidazo[4,5-b]pyridine], the “Binding Inhibition(%)” value in the assay with angiotensin II receptor is listed as 82.0%.
The same measure, in the same setting: next, `CCCCc1nc2cc(-c3ccccc3N)c(C(OC)OC)nc2n1Cc1ccc(-c2ccccc2-c2nn[nH]n2)cc1` [Example 26, 2-butyl-5-dimethoxymethyl-6-(2-aminophenyl-1-yl)-3-[2'-(1H-tetrazol-5-yl)-biphenyl-4-ylmethyl]-3H-imidazo[4,5-b]pyridine]: 89.2%.
Consider `CCCCc1nc2cc(-c3ccccc3)c(C(OCC)OCC)nc2n1Cc1ccc(-c2ccccc2-c2nnn[nH]2)cc1` [Example 2, 2-butyl-5-diethoxymethyl-6-phenyl-3-[2'-(1H-tetrazol-5-yl)-biphenyl-4-ylmethyl]-3H-imidazo[4,5-b]pyridine], for which the change in vivo at 3 mg in the assay with renal hypertensive rat was -45%.
As to `CCCCc1nc2cc(-c3cccnc3)c(C(OC)OC)nc2n1Cc1ccc(-c2ccccc2-c2nnn[nH]2)cc1` [Example 22, 2-butyl-5-dimethoxymethyl-6-(pyridin-3-yl)-3-[2'-(1H-tetrazol-5-yl)-biphenyl-4-ylmethyl]-3H-imidazo[4,5-b]pyridine], the change in vivo at 3 mg in the assay on renal hypertensive rat was -38%. Also, the “Binding Inhibition(%)” value in the assay on angiotensin II receptor stood at 94.8%.
The corresponding values for `CCCCc1nc2cc(-c3ccc(CO)cc3)c(C(OC)OC)nc2n1Cc1ccc(-c2ccccc2-c2nn[nH]n2)cc1` [Example 18, 2-butyl-5-dimethoxymethyl-6-(4-hydroxymethylphenyl-1-yl)-3-[2'-(1H-tetrazol-5-yl)-biphenyl-4-ylmethyl]-3H-imidazo[4,5-b]pyridine] are -33% and 89.4%.
For `CCCCc1nc2cc(-c3ccccc3)c(C3OCCO3)nc2n1Cc1ccc(-c2ccccc2-c2nnn[nH]2)cc1` [Example 3, 2-butyl-5-(1,3-dioxolan-2-yl)-6-phenyl-3-[2'-(1H-tetrazol-5-yl)-biphenyl-4-ylmethyl]-3H-imidazo[4,5-b]pyridine] the same measures were -27% and 70.6%.
Turning to `CCCCc1nc2cc(Br)c(C(OC)OC)nc2n1Cc1ccc(-c2ccccc2-c2nnn[nH]2)cc1` [Example 7, 2-butyl-5-dimethoxymethyl-6-bromo-3-[2'-(1H-tetrazol-5-yl)-biphenyl-4-ylmethyl]-3H-imidazo[4,5-b]pyridine], the “Binding Inhibition(%)” value in the assay with angiotensin II receptor was determined as 78.1%.
As to `CCCCc1nc2cc(-c3ccc[n+]([O-])c3)c(C(OC)OC)nc2n1Cc1ccc(-c2ccccc2-c2nn[nH]n2)cc1` [Example 24, 2-butyl-5-dimethoxymethyl-6-(1-oxy-pyridin-3-yl)-3-[2'-(1H-tetrazol-5-yl)-biphenyl-4-ylmethyl]-3H-imidazo[4,5-b]pyridine], the change in vivo at 3 mg with renal hypertensive rat is -18%. Moreover, in the assay with angiotensin II receptor, the “Binding Inhibition(%)” value worked out at 94.9%.
Regarding `CCCCc1nc2cc(CCc3ccccc3)c(C(OC)OC)nc2n1Cc1ccc(-c2ccccc2-c2nn[nH]n2)cc1` [Example 15, 2-butyl-5-dimethoxymethyl-6-(2-phenylethyl-1-yl)-3-[2'-(1H-tetrazol-5-yl)-biphenyl-4-ylmethyl]-3H-imidazo[4,5-b]pyridine], the change in vivo at 3 mg in the assay with renal hypertensive rat is -36%. In addition, the “Binding Inhibition(%)” value in the assay with angiotensin II receptor is listed as 82.0%.
For `CCCCc1nc2cc(-c3cc[n+]([O-])cc3)c(C(OC)OC)nc2n1Cc1ccc(-c2ccccc2-c2nn[nH]n2)cc1` [Example 25, 2-butyl-5-dimethoxymethyl-6-(1-oxy-pyridin-4-yl)-3-[2'-(1H-tetrazol-5-yl)-biphenyl-4-ylmethyl)-3H-imidazo[4,5-b]pyridine] the same measures were -29% and 97.0%.
Turning to `CCCCc1nc2c(C)cc(C(OC)OC)nc2n1Cc1ccc(-c2ccccc2-c2nnn[nH]2)cc1` [Example 11, 2-butyl-5-dimethoxymethyl-7-methyl-3-[2'-(1H-tetrazol-5-yl)-biphenyl-4-ylmethyl]-3H-imidazo[4,5-b]pyridine], the “Binding Inhibition(%)” value in the assay with angiotensin II receptor was determined as 52.5%.
On to `CCCCc1nc2cc(-c3ccc(C)cc3)c(C(OC)OC)nc2n1Cc1ccc(-c2ccccc2-c2nn[nH]n2)cc1` [Example 16, 2-butyl-5-dimethoxymethyl-6-(4-methylphenyl-1-yl)-3-[2'-(1H-tetrazol-5-yl)-biphenyl-4-ylmethyl]-3H-imidazo[4,5-b]pyridine], for which the “Binding Inhibition(%)” value with angiotensin II receptor worked out at 68.5%.
On the same count and under the same terms, next, `CCCCc1nc2ccc(C(OC)OC)nc2n1Cc1ccc(-c2ccccc2-c2nnn[nH]2)cc1` [Example 10, 2-butyl-5-dimethoxymethyl-3-[2'-(1H-tetrazol-5-yl)-biphenyl-4-ylmethyl]-3H-imidazo[4,5-b]pyridine]: 83.6%.
In the case of `CCCCc1nc2cc(-c3cccs3)c(C(OC)OC)nc2n1Cc1ccc(-c2ccccc2-c2nnn[nH]2)cc1` [Example 14, 2-butyl-5-dimethoxymethyl-6-(thiophen-2-yl)-3-[2'-(1H-tetrazol-5-yl)-biphenyl-4-ylmethyl]-3H-imidazo[4,5-b]pyridine], the “Binding Inhibition(%)” value in the assay with angiotensin II receptor is on record as 72.0%.
Still for that read-out and setting: next, `CCc1nc2c(C)cc(C(OC)OC)nc2n1Cc1ccc(-c2ccccc2-c2nnn[nH]2)cc1` [Example 12, 2-ethyl-5-dimethoxymethyl-7-methyl-3-[2'-(1H-tetrazol-5-yl)-biphenyl-4-ylmethyl]-3H-imidazo[4,5-b]pyridine]: 44.5%; `CCCCc1nc2cc(-c3ccccc3)c(C3SCCS3)nc2n1Cc1ccc(-c2ccccc2-c2nnn[nH]2)cc1` [Example 5, 2-butyl-5-(1,3-dithiolan-2-yl)-6-phenyl-3-[2'-(1H-tetrazol-5-yl)-biphenyl-4-ylmethyl]-3H-imidazo[4,5-b]pyridine]: 54.1%; `CCCCc1nc2cc(Cc3ccccc3)c(C(OC)OC)nc2n1Cc1ccc(-c2ccccc2-c2nnn[nH]2)cc1` [Example 27, 2-butyl-5-dimethoxymethyl-6-benzyl-3-[2'-(1H-tetrazol-5-yl)-biphenyl-4-ylmethyl]-3H-imidazo[4,5-b]pyridine]: 87.8%.
Still for that read-out and setting: the figure for `CCCCc1nc2cc(-c3ccc(F)cc3)c(C(OC)OC)nc2n1Cc1ccc(-c2ccccc2-c2nn[nH]n2)cc1` [Example 9, 2-butyl-5-dimethoxymethyl-6-(4-fluorophenyl-1-yl)-3-[2'-(1H-tetrazol-5-yl)-biphenyl-4-ylmethyl]-3H-imidazo[4,5-b]pyridine] is 45.2%.
